Test results as given in patent publication US20260356879A1, “CELASTROL DERIVATIVES” (Celloram Inc., priority 2022, published 2026).
Entries after “also recorded” stand apart in the source; their conditions may differ. Read-outs that look alike come from different tables or passages of the source.

Columns and labels:
[1] = test system: NF-kB; assay: NF-kB luciferase reporter assay (HepG2 NF-kB-Luc reporter cells, IL-1β stimulated); format: cell-based, human; settings: for IC50: Homo sapiens
Experimental: HepG2 NF-kB-Luc reporter cells stimulated with IL-1β (20 ng/ml) and the relative NF-kB luciferase activity (RLU) was determined for each of celastrol (compound 1) and each of the exemplary derivative compounds at the following eight point concentrations: 10 μM, 5 μM, 2.5 μM, 1.25 μM, 0.63 μM, 0.31 μM, 0.16 μM, 0.016 μM, and 0 μM). Assay values were plotted (not shown) and IC50 inhibitory concentrations were calculated after normalization using Prizm 9.0 software.
This example illustrates a study of the anti-inflammatory potential of an exemplary celastrol derivative of the present disclosure (compound 22) using an NF-κB luciferase promoter reporter gene assay in the human liver cancer cell line, HepG2.
NF-kB luciferase reporter assay: The celastrol derivative, compound 22 (prepared as described in Example 13) and the parent molecule, compound 1 (celastrol), were freshly dissolved in DMSO. HepG2 NF-κB reporter cells were seeded (2.5×10^4/well) in 96-well plate and then pre-treated with either compound 22 or compound 1 at the 8-point concentrations of 10, 5, 2.5, 1.25, 0.63, 0.31, 0.16, 0.016, or 0 μM, respectively, and the NF-κB promoter was activated by adding IL-1β (20 ng/ml) to the cells. After 18 hours, the cells were harvested by adding the 1× passive cell lysis buffer (Promega) and followed by measurement of the relative NF-kB luciferase activity (RLU) using GloMax discover microplate reader (Promega). Inhibitory concentrations (IC50) after normalization using Prizm 9.0 software.

[2] = molecular target: T1, NLRP3 (Homo sapiens, UniProt Q96P20); assay: DARTS assay: protection of NLRP3 from Pronase degradation in THP-1 lysates; format: binding; settings: 10 μM, Pronase (50-500 ng/μg of protein), FIG. 6A, 6B
T1 construct: DARTS with Pronase, NACHT and PYD antibodies
T1 sequence (Q96P20 whole entry): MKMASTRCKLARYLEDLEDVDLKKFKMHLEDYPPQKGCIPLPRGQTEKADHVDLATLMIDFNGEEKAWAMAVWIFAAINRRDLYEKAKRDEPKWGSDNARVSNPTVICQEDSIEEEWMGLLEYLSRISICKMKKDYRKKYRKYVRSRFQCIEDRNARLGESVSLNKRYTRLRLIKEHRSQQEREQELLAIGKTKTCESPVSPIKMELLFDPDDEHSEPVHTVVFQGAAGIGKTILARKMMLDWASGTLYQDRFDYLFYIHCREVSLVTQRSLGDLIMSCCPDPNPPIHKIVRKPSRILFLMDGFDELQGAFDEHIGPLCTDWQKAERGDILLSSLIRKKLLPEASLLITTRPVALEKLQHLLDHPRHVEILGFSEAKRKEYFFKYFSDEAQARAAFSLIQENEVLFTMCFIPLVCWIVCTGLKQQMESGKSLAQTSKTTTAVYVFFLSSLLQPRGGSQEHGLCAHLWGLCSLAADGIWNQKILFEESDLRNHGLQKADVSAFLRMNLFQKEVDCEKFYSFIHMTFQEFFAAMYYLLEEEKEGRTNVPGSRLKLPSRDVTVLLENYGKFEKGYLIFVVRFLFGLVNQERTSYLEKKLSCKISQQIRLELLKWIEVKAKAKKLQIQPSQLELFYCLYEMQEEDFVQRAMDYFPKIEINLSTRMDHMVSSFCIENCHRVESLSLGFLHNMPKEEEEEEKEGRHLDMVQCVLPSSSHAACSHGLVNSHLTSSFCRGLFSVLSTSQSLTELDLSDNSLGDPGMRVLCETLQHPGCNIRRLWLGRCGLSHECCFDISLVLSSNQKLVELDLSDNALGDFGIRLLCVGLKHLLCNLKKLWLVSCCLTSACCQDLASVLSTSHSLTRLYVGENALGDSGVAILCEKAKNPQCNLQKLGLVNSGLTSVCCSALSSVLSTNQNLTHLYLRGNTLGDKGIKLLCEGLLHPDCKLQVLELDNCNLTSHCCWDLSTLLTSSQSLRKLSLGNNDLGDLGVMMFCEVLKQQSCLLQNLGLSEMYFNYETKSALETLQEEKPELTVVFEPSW
Excerpt: (§1) The NLRP3 inflammasome is composed of a multi-protein complex and the exact molecular mode of NLRP3 activation remains unclear. Currently, there are no NLRP3 inflammasome inhibitors in the clinic, and it is important to identify the mechanism of action and molecular target of potential small molecules that interact with NLRP3. This example illustrates a study of the ability of CLM-022 to protect the NLRP3 molecule as determined using a drug affinity responsive target stability (DARTS) assay. DARTS assay is a robust method to identify small molecule target protein. In case of a drug-target interaction, the small molecule protects target protein from degradation by proteinase (Pronase) whereas free-proteins may be degraded very efficiently in the given condition.
(§2) The DARTS assay was performed using THP-1 lysates pretreated with LPS and Nigericin to induce activation of NLRP3 inflammasome. THP-1 cells (1×10^5/mL) were treated with LPS (100 ng/ml) for 3 hours, followed by 10 μM Nigericin for an additional 30 minutes. Pronase (50-500 ng/μg of protein) was added to the lysate with CLM-022 (10 μM) or MCC950 (10 μM) for the indicated time (10-15 min) at room temperature. The protein components of NLRP3 inflammasome were visualized using antibody recognizing NLRP3-Natch domain (FIG. 6A), NLRP-PYD domain (FIG. 6B), or NEK7 protein (FIG. 6C). […]

[3] = molecular target: T2, NEK7 (Homo sapiens, UniProt Q8TDX7); assay: DARTS assay: protection of NEK7 from Pronase degradation in THP-1 lysates; format: binding; settings: 10 μM, FIG. 6C
T2 construct: DARTS with Pronase, immunoblot
T2 sequence (Q8TDX7 whole entry): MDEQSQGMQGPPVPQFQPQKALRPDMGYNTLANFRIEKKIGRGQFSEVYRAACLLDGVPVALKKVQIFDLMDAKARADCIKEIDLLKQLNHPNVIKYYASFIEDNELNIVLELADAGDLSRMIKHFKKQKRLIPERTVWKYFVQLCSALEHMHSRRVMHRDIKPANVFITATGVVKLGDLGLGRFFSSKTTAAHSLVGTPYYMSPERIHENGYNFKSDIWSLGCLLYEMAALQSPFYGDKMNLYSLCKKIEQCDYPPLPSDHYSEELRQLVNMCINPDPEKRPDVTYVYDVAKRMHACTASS
Excerpt: as §1, §2

[4] = test system: THP-1 cells; assay: THP-1 cell viability (inflammasome-induced pyroptosis), live/dead staining and flow cytometry; format: cell-based, human; settings: THP-1, LPS and Nigericin, 0 μM to 10 μM; FIG. 7A
Excerpt: Pyroptosis, a pro-inflammatory form of cell death, is triggered by the activation of NLRP3 inflammasome components (GSDMD and Caspase-1), leading to the release of pro-inflammatory cytokines IL-1β and IL-18, as well as damage-associated molecular patterns (DAMPs). This process elicits a cascade of inflammatory responses, which can persist if dysregulated in affected tissues. Given the significant inhibitory potential of CLM-022 against NLRP3 inflammasome and IL-1β secretion, it was proposed that CLM-022 could effectively enhance cell viability by inhibiting pyroptosis in the context of inflammation and inflammasome activation. This example illustrates a comparative study of the abilities of CLM-022 and MCC950 to protect THP-1 cells from inflammasome-induced pyroptosis.
After LPS and Nigericin treatment, THP-1 cells were treated with either CLM-022 or MCC950 over a dosage range of 0 μM to 10 μM and cell viability was determined by impermeant live/dead staining dye and flow cytometric analysis. Additionally, NLRP3 inflammasome-induced cytotoxicity was investigated by measuring the level of LDH in the conditioned media after the CLM-022 and MCC950 treatments. Further, Western blotting of samples from the THP-1 cell viability assays was carried out to determine levels of the pyroptosis-mediating molecules, GSDMD and Caspase-1.

**Q.** With `CC1=C(O)C(=O)C=C2C1=CC=C1[C@@]2(C)CC[C@@]2(C)[C@@H]3C[C@](C)(N(C)C(=O)C(=O)N(C)C)CC[C@]3(C)CC[C@]12C` [Compound 22, N′-[(2R,4aS,6aR,6aS,14aS,14bR)-10-hydroxy-2,4a,6a,6a,9,14a-hexamethyl-11-oxo-1,3,4,5,6,13,14,14b-octahydropicen-2-yl]-N,N,N′-trimethyl-oxamide] as the compound, how does the IC50 ([1]; HepG2, IL-1β (20 ng/ml), 18 hours, normalized, Example 14, FIG. 1B, read-out: IC50 for NF-κB promoter activity) read?
**A.** 268 nM

**Q.** What about the IC50 ([1]; HepG2 NF-kB-Luc reporter cells, IL-1β (20 ng/ml), Example 13, read-out: NF-kB IC50) of the same compound?
**A.** 268 nM

**Q.** And the “inhibition of NF-kB inflammatory signaling” value ([1]; IL-1β-induced, HepG2, FIG. 1)?
**A.** robust inhibitory potential for IL-1β-induced NF-kB inflammatory signaling pathway superior to celastrol (compound 1) at low concentrations; also recorded: robustly inhibits NF-κB inflammatory signaling

**Q.** And the “% IC50 relative to Celastrol” value ([1]; relative to celastrol (compound 1))?
**A.** 51%

**Q.** What about the “IC50 lower than that of compound 1 by” value ([1]; vs compound 1 (IC50=528 nM), Example 14) of the same compound?
**A.** 50%

**Q.** And the “protection of NLRP3 protein from Pronase-induced degradation” value [2]?
**A.** markedly improved protection of NLRP3 protein, but not NEK7, from Pronase-induced degradation

**Q.** And the “protection of NLRP3 protein from Pronase-induced degradation” value ([2]; listed as CLM-022)?
**A.** markedly protected NLRP3 protein from degradation which was obviously more efficient than that of MCC950

**Q.** What about the “protection of NEK7 from Pronase-induced degradation” value [3] of the same compound?
**A.** did not protect NEK7 from Pronase-induced degradation

**Q.** And the “increase in cell viability” value [4]?
**A.** up to 60%
